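Following 48 hours of exposure in 96-well plates, responses at five concentrations were used to interpolate endpoints linearly. At the GI50, growth is halved. At the TGI there is no net growth.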
Experiments:
Experiment in all cases: NCI anticancer screen, dose series, 48 h
SK-MEL-28 melanoma = test system: SK-MEL-28 melanoma
CAKI-1 renal = test system: CAKI-1 renal
UO-31 renal = test system: UO-31 renal
SW-620 colon = test system: SW-620 colon
CCRF-CEM leukemia = test system: CCRF-CEM leukemia
OVCAR-4 ovarian = test system: OVCAR-4 ovarian
NCI-H23 lung = test system: NCI-H23 lung
HCT-15 colon = test system: HCT-15 colon
SK-MEL-5 melanoma = test system: SK-MEL-5 melanoma
ACHN renal = test system: ACHN renal

SMILES | TGI (SK-MEL-28 melanoma) [µM] | TGI (CAKI-1 renal) [µM] | TGI (UO-31 renal) [µM] | TGI (SW-620 colon) [µM] | TGI (CCRF-CEM leukemia) [µM] | TGI (OVCAR-4 ovarian) [µM] | TGI (NCI-H23 lung) [µM] | TGI (HCT-15 colon) [µM] | TGI (SK-MEL-5 melanoma) [µM] | GI50 (SK-MEL-28 melanoma) [µM] | GI50 (UO-31 renal) [µM] | GI50 (ACHN renal) [µM] | TGI (ACHN renal) [µM] | GI50 (SW-620 colon) [µM] | GI50 (CCRF-CEM leukemia) [µM] | GI50 (OVCAR-4 ovarian) [µM] | GI50 (NCI-H23 lung) [µM] | GI50 (HCT-15 colon) [µM] | GI50 (SK-MEL-5 melanoma) [µM] | GI50 (CAKI-1 renal) [µM]
CN(C)CCNC(=O)c1cccc2nc3ccc4ccccc4c3nc12 | 1.05 | 0.541 | 0.433 | 0.313 | 1.34 | 1.02 | 0.221 | 0.468 | 0.236 | – | – | – | – | – | – | – | – | – | – | –
O=C1C2=C(C(=O)c3c(O)ccc(O)c31)N(c1ccc(N3CCOCC3)nc1)Cc1ccccc1O2 | 0.785 | – | 0.429 | 0.5 | – | 1.05 | 1.88 | 0.622 | 2.76 | 0.275 | 0.131 | 0.0534 | 0.237 | 0.152 | 0.0778 | 0.282 | 0.421 | 0.205 | 1.36 | –
O=C(N[C@H](c1ccc(Cl)c(Cl)c1)C1CNC1)c1ccc2cnccc2c1 | 18.6 | 10.7 | – | 15.2 | 13.6 | 19.4 | 19.6 | 18.3 | 23.2 | 5.5 | – | 6.11 | 18.9 | 2.57 | 2.74 | 5.68 | 5.83 | 5.02 | 11.1 | 1.84
C/C(=N\NC(=O)CC(=O)Nc1ccc(C)cc1)c1cc2ccccc2oc1=O | > 100 | – | > 100 | > 100 | > 100 | – | > 100 | > 100 | > 100 | – | – | – | > 100 | – | – | – | – | – | – | –
Cc1ccc(-n2c3c(c4c(CN5CCCCC5)c(O)ccc42)CCc2ccccc2C3=O)cc1 | – | > 100 | > 100 | > 100 | – | – | > 100 | > 100 | > 100 | – | > 100 | > 100 | > 100 | > 100 | – | – | > 100 | > 100 | > 100 | > 100
C/C(=N/O)C1CC=C(S(=O)(=O)c2ccccc2)C1 (centres undefined) | > 100 | > 100 | > 100 | > 100 | > 100 | > 100 | > 100 | > 100 | – | – | – | – | > 100 | – | – | – | – | – | – | –
CC1=C(C(=O)Nc2cccc(C(F)(F)F)c2)C(c2ccc(O)cc2)C(C(=O)Nc2cccc(C(F)(F)F)c2)=C(C)N1 | 47.7 | 59.3 | 53.5 | 44 | 66.4 | 86.6 | 35.8 | – | 33.6 | – | – | – | 96.2 | – | – | – | – | – | – | –
COc1cc2cc3c4c(cc(OC)c(OC)c4c2cc1OC)CCN3C(=O)CCCC(=O)O | > 100 | > 100 | > 100 | > 100 | > 100 | > 100 | > 100 | – | > 100 | – | – | – | > 100 | – | – | – | – | – | – | –
Cn1cc(-c2csc(-c3c[nH]c4ncccc34)n2)c2cc(Br)cnc21 | – | > 100 | – | > 100 | > 100 | – | > 100 | > 100 | – | – | – | 2.35 | > 100 | 4.46 | 6.81 | – | 2.8 | 13.7 | – | 1.56
C=CCN1C(=O)/C(=c2\sc3n(c2=O)C2C(NN=3)N(CC)C(=O)N2CC)c2ccccc21 (centres undefined) | > 100 | > 100 | – | > 100 | > 100 | > 100 | > 50.7 | > 100 | 2.05 | 5.36 | – | 0.834 | > 100 | 0.423 | 0.469 | 1.03 | 0.88 | 0.451 | 0.421 | 0.474
CN(C)c1cccc(-c2cc(=O)c3ccccc3[nH]2)c1 | > 100 | – | > 100 | > 100 | > 100 | – | > 100 | > 100 | – | – | – | – | > 100 | – | – | – | – | – | – | –
COc1ccc(/C=C2\N=C(c3ccccc3)OC2=O)c(OCc2ccccc2)c1 | > 100 | > 100 | > 100 | > 100 | 50.2 | 47.7 | – | – | 52.2 | – | – | – | > 100 | – | – | – | – | – | – | –
CC(C)(O)[C@@H]1CCC(C)([C@H]2[C@@H](O)CC3(C)C4CC(OC5OC(CO)C(O)C(O)C5O)C5C(C)(C)[C@@H](OC6OCC(O)C(O)C6O)CC[C@@]56C[C@@]46CC[C@]23C)O1 (some centres undefined) | > 100 | – | > 100 | > 100 | > 100 | > 100 | > 100 | > 100 | > 100 | – | – | – | > 100 | – | – | – | – | – | – | –
Cc1cc2c3ccccc3n(C)c2c2c1C(=O)c1ccccc1C2=O | 65 | 54.8 | 27.4 | > 100 | 25.5 | 51.4 | 44 | – | – | – | – | – | – | – | – | – | – | – | – | –

Source: PubChem BioAssay (NCI)
